Patent US20230373985A1 (Origenis Gmbh, priority 2020, published 2023)
pIC50: −log10 of the molar value.

Columns and labels:
[1] = target: T1, wt human LRRK2, catalytic site (Homo sapiens, UniProt Q5S007); assay: TR-FRET LanthaScreen Eu Kinase Binding Assay, LRRK2 wt; conditions: one range stated for wt and G2019, read-out: IC50, Activity Toward LRRK2(Wt)
T1 construct: 5 nM wt human LRRK2, catalytic site; purchased ThermoFisher
In short: (§1)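 Kinase Buffer A holding, as final levels, 8 nM full-length NUAK1, 2 nM Eu-anti-His antibody and 5 nM Tracer 236, or 5 nM LRRK2 catalytic site (wt or G2019S), 2 nM Eu-anti-GST and 10 nM Tracer 236. Compound added, then 1 h at room temperature before TR-FRET ratio readout.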

[2] = target: T2, wt human TYK2, catalytic site (Homo sapiens, UniProt P29597); assay: HTRF KinEASE assay, TYK2; format: biochemical; conditions: 1 μM ATP; read-out: IC50, Activity Toward TYK2
T2 construct: wt human TYK2, catalytic site; purchased SignalChem
T2 sequence (P29597 897-1176 limits assumed): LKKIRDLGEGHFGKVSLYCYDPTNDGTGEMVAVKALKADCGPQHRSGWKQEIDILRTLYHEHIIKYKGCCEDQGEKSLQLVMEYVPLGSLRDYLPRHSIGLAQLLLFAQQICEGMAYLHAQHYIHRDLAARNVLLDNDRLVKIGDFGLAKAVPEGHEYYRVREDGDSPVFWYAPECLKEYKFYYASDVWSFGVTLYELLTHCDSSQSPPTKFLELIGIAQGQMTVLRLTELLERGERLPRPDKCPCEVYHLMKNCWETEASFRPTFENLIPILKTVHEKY
In short: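 Kinase reaction run at room temperature for at least 30 min: 2 nM TYK2 with 1 μM ATP, or 1 nM JAK2 with 100 μM ATP, each with 1 μM biotin-TK substrate. Phosphorylation detected by HTRF (60 min antibody/XL665) and evaluated from emission ratios.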

[3] = target: T3, G2019S human LRRK2, catalytic site (Homo sapiens, UniProt Q5S007, G2019S); assay: TR-FRET LanthaScreen Eu Kinase Binding Assay, LRRK2 G2019S; conditions: LRRK2(G2019); one range stated for wt and G2019; read-out: IC50, Activity Toward LRRK2(G2019)
T3 construct: G2019S human LRRK2, catalytic site; purchased ThermoFisher
T3 sequence (Q5S007 970-2527 G2019S limits assumed): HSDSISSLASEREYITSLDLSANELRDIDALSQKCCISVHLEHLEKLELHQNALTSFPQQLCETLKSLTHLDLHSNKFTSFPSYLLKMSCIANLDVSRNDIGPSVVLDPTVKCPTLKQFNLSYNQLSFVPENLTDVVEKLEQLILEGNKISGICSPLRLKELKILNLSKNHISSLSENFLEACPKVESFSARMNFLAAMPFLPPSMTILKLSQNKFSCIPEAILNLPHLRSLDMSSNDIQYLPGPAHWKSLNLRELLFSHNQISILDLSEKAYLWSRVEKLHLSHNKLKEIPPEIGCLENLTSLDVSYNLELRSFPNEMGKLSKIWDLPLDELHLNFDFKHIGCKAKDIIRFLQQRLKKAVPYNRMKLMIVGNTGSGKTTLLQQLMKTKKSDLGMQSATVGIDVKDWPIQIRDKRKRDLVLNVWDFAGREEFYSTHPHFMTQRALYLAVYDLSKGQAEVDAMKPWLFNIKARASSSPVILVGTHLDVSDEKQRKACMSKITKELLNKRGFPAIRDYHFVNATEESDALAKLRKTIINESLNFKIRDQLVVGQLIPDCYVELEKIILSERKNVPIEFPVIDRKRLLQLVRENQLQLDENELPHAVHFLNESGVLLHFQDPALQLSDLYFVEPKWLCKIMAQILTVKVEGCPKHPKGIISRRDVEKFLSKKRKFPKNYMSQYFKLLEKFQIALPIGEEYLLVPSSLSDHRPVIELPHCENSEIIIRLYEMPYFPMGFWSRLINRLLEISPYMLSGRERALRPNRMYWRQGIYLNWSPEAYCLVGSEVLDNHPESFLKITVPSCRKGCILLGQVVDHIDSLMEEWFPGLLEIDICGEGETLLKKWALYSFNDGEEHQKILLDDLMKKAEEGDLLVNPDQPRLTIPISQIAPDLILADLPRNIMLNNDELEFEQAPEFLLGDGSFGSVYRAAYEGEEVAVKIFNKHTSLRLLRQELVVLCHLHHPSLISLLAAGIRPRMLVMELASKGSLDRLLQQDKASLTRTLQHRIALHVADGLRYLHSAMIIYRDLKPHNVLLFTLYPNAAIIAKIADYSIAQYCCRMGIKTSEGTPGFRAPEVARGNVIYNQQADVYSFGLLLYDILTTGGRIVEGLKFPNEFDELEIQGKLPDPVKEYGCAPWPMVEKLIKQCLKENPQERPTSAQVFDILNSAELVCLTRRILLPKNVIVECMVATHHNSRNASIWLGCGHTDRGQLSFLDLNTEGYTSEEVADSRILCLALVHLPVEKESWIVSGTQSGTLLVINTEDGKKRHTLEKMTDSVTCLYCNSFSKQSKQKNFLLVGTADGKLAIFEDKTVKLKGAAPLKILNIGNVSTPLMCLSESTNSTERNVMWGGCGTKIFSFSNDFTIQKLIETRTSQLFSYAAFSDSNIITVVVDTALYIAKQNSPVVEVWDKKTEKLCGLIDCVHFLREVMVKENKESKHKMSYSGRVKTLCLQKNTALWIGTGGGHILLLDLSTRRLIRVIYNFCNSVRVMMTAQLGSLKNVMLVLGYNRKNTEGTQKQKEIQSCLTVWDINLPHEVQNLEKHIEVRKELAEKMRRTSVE
In short: as §1

[4] = target: T4, wt human JAK1, catalytic site (Homo sapiens, UniProt P23458); assay: HTRF KinEASE assay, JAK1; format: biochemical; conditions: 2.5 μM ATP; read-out: IC50, Activity Toward JAK1
T4 construct: wt human JAK1, catalytic site; purchased ThermoFisher
T4 sequence (P23458 875-1153 limits assumed): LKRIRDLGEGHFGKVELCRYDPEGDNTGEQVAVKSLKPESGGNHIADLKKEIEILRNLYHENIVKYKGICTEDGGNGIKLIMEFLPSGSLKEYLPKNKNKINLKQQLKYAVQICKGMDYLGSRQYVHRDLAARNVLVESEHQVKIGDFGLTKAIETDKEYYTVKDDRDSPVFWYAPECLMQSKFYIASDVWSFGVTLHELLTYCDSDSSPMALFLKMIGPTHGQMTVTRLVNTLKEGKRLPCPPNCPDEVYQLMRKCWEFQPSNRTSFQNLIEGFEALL
In short: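 Compounds in DMSO dilution were mixed with kinase, biotin-TK substrate and ATP and reacted for ≥30 min at room temperature. Detection reagents (antibody, streptavidin-XL665) were read 60 min later as HTRF, with emission ratios analysed per KinEASE protocol.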

[5] = target: T5, wt human NUAK1, full length (Homo sapiens, UniProt O60285); assay: TR-FRET LanthaScreen Eu Kinase Binding Assay, NUAK1; conditions: read-out: IC50, Activity Toward NUAK1
T5 construct: 8 nM wt human NUAK1, full length (ThermoFisher/USA); purchased ThermoFisher
T5 sequence (O60285 1-661): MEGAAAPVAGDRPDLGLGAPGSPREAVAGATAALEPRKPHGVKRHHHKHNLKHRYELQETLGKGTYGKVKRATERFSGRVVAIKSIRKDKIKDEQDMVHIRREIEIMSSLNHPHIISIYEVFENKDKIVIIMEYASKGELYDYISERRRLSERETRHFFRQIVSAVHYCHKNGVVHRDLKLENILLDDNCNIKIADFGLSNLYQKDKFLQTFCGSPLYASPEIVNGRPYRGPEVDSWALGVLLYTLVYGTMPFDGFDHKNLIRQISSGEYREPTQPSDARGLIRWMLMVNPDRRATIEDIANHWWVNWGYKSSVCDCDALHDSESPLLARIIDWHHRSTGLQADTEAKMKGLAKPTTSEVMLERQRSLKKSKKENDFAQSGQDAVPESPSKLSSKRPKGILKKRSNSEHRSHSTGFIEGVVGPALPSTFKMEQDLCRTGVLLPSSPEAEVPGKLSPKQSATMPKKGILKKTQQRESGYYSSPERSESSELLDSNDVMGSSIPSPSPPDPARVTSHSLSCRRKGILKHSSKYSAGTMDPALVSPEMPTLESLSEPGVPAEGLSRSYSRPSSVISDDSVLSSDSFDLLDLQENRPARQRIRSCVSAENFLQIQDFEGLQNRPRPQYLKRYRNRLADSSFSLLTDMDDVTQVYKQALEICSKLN
Procedure: The basic protocol for TR-FRET LanthaScreen Eu Kinase Binding Assay inhibitor studies were performed as follows. LanthaScreen Kinase Binding Assays (ThermoFisher/USA) to evaluate inhibitors were performed by addition of 5 μL of test compound in corresponding DMSO dilutions/5 μl of kinase/antibody mixture, 5 μL of tracer into 384 well small volume plates. After incubation for 1 hour at room temperature, plates were read. Data analysis of emission ratios was according LanthaScreen Eu Kinase Binding Assay protocol.
Kinase and assay components were adjusted to final concentrations according to kit protocol. For LRRK2: 5 nM wt human LRRK2, catalytic site, or G2019S human LRRK2, catalytic site (ThermoFisher/USA), 2 nM Eu-Anti-GST Antibody, 10 nM Kinase Tracer 236 in 1× Kinase Buffer A. For NUAK1: 8 nM wt human NUAK1, full length (ThermoFisher/USA), 2 nM Eu-Anti-His Antibody, 5 nM Kinase Tracer 236 in 1× Kinase Buffer A.

T1 sequence (Q5S007 970-2527 limits assumed): as the sequence (Q5S007 970-2527 G2019S limits assumed) above, with S1050G counted along it

SMILES	pIC50 [1]	pIC50 [2]	pIC50 [3]	pIC50 [4]	pIC50 [5]
CC(C)(C)NC(=O)c1ccc(Nc2cn(-c3c(F)cccc3Cl)nc2C(N)=O)cc1 [compound 27, 4-((4-(tert-butylcarbamoyl)phenyl)amino)-1-(2-chloro-6-fluorophenyl)-1H-pyrazole-3-carboxamide]	6.00 to 7.00	7.00 to 8.00	6.00 to 7.00	6.00 to 7.00	6.00 to 7.00
NC(=O)c1nn(-c2c(F)cccc2F)cc1Nc1ccc(C(=O)N2CCOCC2)nc1 [compound 30, 1-(2,6-difluorophenyl)-4-((6-(morpholine-4-carbonyl)pyridin-3-yl)amino)-1H-pyrazole-3-carboxamide]	6.00 to 7.00	7.00 to 8.00	6.00 to 7.00	6.00 to 7.00	6.00 to 7.00
CN1CCC(NC(=O)c2ccc(Nc3cn(-c4c(Cl)cccc4Cl)nc3C(N)=O)cc2)CC1 [compound 31, 1-(2,6-dichlorophenyl)-4-((4-((1-methylpiperidin-4-yl)carbamoyl)phenyl)amino)-1H-pyrazole-3-carboxamide]	6.00 to 7.00	7.00 to 8.00	6.00 to 7.00	7.00 to 8.00	6.00 to 7.00
CN1CCC(NC(=O)c2ccc(Nc3cn(-c4c(F)cccc4Cl)nc3C(N)=O)cc2)CC1 [compound 35, 1-(2-chloro-6-fluorophenyl)-4-((4-((1-methylpiperidin-4-yl)carbamoyl)phenyl)amino)-1H-pyrazole-3-carboxamide]	7.00 to 8.00	7.00 to 8.00	7.00 to 8.00	7.00 to 8.00	6.00 to 7.00
NC(=O)c1nn(-c2c(F)cccc2Cl)cc1Nc1ccc(C(=O)NC2CCCNC2)cc1 (stereo not shown) [compound 38, 1-(2-chloro-6-fluorophenyl)-4-((4-(piperidin-3-ylcarbamoyl)phenyl)amino)-1H-pyrazole-3-carboxamide]	6.00 to 7.00	7.00 to 8.00	6.00 to 7.00	7.00 to 8.00	7.00 to 8.00
Cn1nncc1-c1ccc(Nc2cn(-c3c(Cl)cccc3Cl)nc2C(N)=O)cc1 [compound 48, 1-(2,6-dichlorophenyl)-4-((4-(1-methyl-1H-1,2,3-triazol-5-yl)phenyl)amino)-1H-pyrazole-3-carboxamide]	6.00 to 7.00	7.00 to 8.00	6.00 to 7.00	6.00 to 7.00	6.00 to 7.00
NC(=O)c1nn(-c2c(F)cccc2Cl)cc1Nc1ccc(C(=O)N2CC3(CCC3)C2)cc1 [compound 54, 4-((4-(2-azaspiro[3.3]heptane-2-carbonyl)phenyl)amino)-1-(2-chloro-6-fluorophenyl)-1H-pyrazole-3-carboxamide]	6.00 to 7.00	7.00 to 8.00	6.00 to 7.00	6.00 to 7.00	6.00 to 7.00
Cc1ccnnc1-c1ccc(Nc2cn(-c3c(F)cccc3Cl)nc2C(N)=O)cc1 [compound 56, 1-(2-chloro-6-fluorophenyl)-4-((4-(4-methylpyridazin-3-yl)phenyl)amino)-1H-pyrazole-3-carboxamide]	7.00 to 8.00	7.00 to 8.00	7.00 to 8.00	6.00 to 7.00	6.00 to 7.00
NC(=O)c1nn(-c2c(F)cccc2C(F)(F)F)cc1Nc1ccc(C(=O)N2CC3(CCC3)C2)cc1 [compound 61, 4-((4-(2-azaspiro[3.3]heptane-2-carbonyl)phenyl)amino)-1-(2-fluoro-6-(trifluoromethyl)phenyl)-1H-pyrazole-3-carboxamide]	6.00 to 7.00	7.00 to 8.00	6.00 to 7.00	6.00 to 7.00	6.00 to 7.00
NC(=O)c1nn(-c2c(F)cccc2Cl)cc1Nc1ccc(C(=O)N2CCOCC2)cn1 [compound 68, 1-(2-chloro-6-fluorophenyl)-4-((5-(morpholine-4-carbonyl)pyridin-2-yl)amino)-1H-pyrazole-3-carboxamide]	6.00 to 7.00	7.00 to 8.00	6.00 to 7.00	6.00 to 7.00	6.00 to 7.00
NC(=O)c1nn(-c2c(Cl)cccc2Cl)cc1Nc1ccc(C(=O)N2CCCCC2)cc1 [compound 82, 1-(2,6-dichlorophenyl)-4-((4-(piperidine-1-carbonyl)phenyl)amino)-1H-pyrazole-3-carboxamide]	6.00 to 7.00	7.00 to 8.00	6.00 to 7.00	7.00 to 8.00	6.00 to 7.00
NC(=O)c1nn(-c2c(Cl)cccc2Cl)cc1Nc1ccc(C(=O)N2CCN(CC3CC3)CC2)cc1 [compound 86, 4-((4-(4-(cyclopropylmethyl)piperazine-1-carbonyl)phenyl)amino)-1-(2,6-dichlorophenyl)-1H-pyrazole-3-carboxamide]	6.00 to 7.00	> 8.00	6.00 to 7.00	7.00 to 8.00	6.00 to 7.00
NC(=O)c1nn(-c2c(F)cccc2Cl)cc1Nc1ccc(-n2ncc3c2CCOC3)cc1 [compound 208, 1-(2-chloro-6-fluorophenyll)-4-((4-(6,7-dihydropyrano[4,3-c]pyrazol-1(4H)-yl)phenyl)amino)-1H-pyrazole-3-carboxamide]	7.00 to 8.00	7.00 to 8.00	7.00 to 8.00	7.00 to 8.00	6.00 to 7.00
Cn1ccnc1-c1ccc(Nc2cn(-c3c(Cl)cccc3Cl)nc2C(N)=O)cc1 [compound 225, 1-(2,6-dichlorophenyl)-4-((4-(1-methyl-1H-imidazol-2-yl)phenyl)amino)-1H-pyrazole-3-carboxamide]	6.00 to 7.00	7.00 to 8.00	6.00 to 7.00	7.00 to 8.00	6.00 to 7.00
NC(=O)c1nn(-c2c(F)cccc2Cl)cc1Nc1ccc(C(=O)N2CCCCC2)cc1 [compound 228, 1-(2-chloro-6-fluorophenyl)-4-((4-(piperidine-1-carbonyl)phenyl)amino)-1H-pyrazole-3-carboxamide]	6.00 to 7.00	7.00 to 8.00	6.00 to 7.00	7.00 to 8.00	6.00 to 7.00
NC(=O)c1nn(-c2c(Cl)cccc2Cl)cc1Nc1ccc(-c2nccn2CC(F)F)cc1 [compound 230, 1-(2,6-dichlorophenyl)-4-((4-(1-(2,2-difluoroethyl)-1H-imidazol-2-yl)phenyl)amino)-1H-pyrazole-3-carboxamide]	6.00 to 7.00	> 8.00	6.00 to 7.00	7.00 to 8.00	6.00 to 7.00
Cc1ccn(-c2ccc(Nc3cn(-c4c(F)cccc4Cl)nc3C(N)=O)cc2)n1 [compound 232, 1-(2-chloro-6-fluorophenyl)-4-((4-(3-methyl-1H-pyrazol-1-yl)phenyl)amino)-1H-pyrazole-3-carboxamide]	6.00 to 7.00	7.00 to 8.00	6.00 to 7.00	7.00 to 8.00	6.00 to 7.00
